Assay results taken from patent publication US11878975B2, “Substituted indole compounds useful as TLR inhibitors” (BRISTOL-MYERS SQUIBB COMPANY, priority 2017, dated 2024).

How the values were obtained:
Assay type in all cases: cell-based
human TLR8 = target: T1, human TLR8 (Homo sapiens, UniProt Q9NR97); assay: TLR8 inhibition reporter assay (HEK-Blue cells, SEAP reporter, R848 stimulation); conditions: HEK-Blue cells overexpressing human TLR8, SEAP reporter, R848 15.9 μM
T1 construct: host or cells: HEK-Blue cells
T1 sequence (Q9NR97 27-1041): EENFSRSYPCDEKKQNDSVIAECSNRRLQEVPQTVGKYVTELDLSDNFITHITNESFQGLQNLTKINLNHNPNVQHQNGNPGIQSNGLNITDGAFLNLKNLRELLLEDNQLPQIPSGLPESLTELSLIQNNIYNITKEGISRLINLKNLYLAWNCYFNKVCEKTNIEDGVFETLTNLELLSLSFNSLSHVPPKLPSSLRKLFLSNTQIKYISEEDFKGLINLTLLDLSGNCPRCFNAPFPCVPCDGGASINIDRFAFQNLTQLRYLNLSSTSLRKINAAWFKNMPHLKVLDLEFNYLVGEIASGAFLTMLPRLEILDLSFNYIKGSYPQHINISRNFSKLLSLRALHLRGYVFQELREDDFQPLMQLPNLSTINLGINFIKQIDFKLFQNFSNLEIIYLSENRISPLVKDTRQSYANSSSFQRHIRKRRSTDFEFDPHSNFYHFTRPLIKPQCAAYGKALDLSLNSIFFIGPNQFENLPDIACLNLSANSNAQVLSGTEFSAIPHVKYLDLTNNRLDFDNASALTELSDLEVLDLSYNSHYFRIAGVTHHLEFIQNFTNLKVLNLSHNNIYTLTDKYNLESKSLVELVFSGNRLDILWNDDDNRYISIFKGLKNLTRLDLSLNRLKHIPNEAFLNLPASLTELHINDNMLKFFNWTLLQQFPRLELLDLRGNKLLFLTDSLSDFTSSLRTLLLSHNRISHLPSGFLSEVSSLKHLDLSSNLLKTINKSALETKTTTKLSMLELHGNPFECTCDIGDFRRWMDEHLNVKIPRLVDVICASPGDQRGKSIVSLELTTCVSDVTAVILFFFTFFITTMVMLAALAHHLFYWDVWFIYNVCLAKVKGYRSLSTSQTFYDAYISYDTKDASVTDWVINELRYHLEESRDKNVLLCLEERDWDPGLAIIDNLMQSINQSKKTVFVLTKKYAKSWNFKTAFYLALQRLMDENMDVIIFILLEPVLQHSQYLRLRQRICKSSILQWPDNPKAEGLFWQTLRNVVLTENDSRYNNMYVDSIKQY
Summary of the method: (§1)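 SEAP readout after 22 h agonist exposure at 37 °C; final agonist levels were 7.5 μM gardiquimod (TLR7), 15.9 μM R848 (TLR8) and 5 nM ODN2006 (TLR9). Inhibitors, spanning 0.05 nM to 50 μM final, were applied 30 min beforehand.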

human TLR9 = target: T2, human TLR9 (Homo sapiens, UniProt Q9NR96); assay: TLR9 inhibition reporter assay (HEK-Blue cells, SEAP reporter, ODN2006 stimulation); conditions: HEK-Blue cells overexpressing human TLR9, SEAP reporter, ODN2006 5 nM
T2 construct: host or cells: HEK-Blue cells
T2 sequence (Q9NR96 26-1032): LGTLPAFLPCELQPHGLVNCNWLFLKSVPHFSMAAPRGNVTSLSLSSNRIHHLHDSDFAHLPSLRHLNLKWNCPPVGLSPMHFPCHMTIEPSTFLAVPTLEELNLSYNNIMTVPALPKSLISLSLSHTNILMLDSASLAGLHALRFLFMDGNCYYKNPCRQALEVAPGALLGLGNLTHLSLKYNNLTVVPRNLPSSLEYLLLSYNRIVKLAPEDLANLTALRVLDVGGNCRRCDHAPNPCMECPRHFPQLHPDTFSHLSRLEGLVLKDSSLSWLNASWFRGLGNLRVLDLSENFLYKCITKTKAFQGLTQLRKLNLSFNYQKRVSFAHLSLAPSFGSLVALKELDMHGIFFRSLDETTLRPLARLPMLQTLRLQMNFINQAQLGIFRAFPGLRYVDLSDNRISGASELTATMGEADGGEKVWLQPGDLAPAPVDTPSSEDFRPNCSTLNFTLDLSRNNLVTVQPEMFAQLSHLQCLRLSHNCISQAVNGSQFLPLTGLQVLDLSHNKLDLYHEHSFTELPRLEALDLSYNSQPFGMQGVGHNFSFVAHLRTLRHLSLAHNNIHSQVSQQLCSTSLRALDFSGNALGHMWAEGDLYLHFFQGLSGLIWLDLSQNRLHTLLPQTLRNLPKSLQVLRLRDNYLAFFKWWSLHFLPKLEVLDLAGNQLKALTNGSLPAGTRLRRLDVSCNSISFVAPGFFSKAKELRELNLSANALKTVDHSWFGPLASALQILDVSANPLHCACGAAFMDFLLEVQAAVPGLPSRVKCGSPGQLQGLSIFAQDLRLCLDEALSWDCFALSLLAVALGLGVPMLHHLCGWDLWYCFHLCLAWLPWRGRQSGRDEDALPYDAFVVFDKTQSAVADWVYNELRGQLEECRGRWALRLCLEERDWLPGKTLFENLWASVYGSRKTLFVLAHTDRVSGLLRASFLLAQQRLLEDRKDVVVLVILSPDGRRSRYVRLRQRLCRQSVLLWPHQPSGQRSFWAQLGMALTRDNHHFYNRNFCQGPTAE
Summary of the method: as §1

human TLR7 = target: T3, human TLR7 (Homo sapiens, UniProt Q9NYK1); assay: TLR7 inhibition reporter assay (HEK-Blue cells, SEAP reporter, gardiquimod stimulation); conditions: HEK-Blue cells overexpressing human TLR7, SEAP reporter, gardiquimod 7.5 μM
T3 construct: host or cells: HEK-Blue cells
T3 sequence (Q9NYK1 27-1049): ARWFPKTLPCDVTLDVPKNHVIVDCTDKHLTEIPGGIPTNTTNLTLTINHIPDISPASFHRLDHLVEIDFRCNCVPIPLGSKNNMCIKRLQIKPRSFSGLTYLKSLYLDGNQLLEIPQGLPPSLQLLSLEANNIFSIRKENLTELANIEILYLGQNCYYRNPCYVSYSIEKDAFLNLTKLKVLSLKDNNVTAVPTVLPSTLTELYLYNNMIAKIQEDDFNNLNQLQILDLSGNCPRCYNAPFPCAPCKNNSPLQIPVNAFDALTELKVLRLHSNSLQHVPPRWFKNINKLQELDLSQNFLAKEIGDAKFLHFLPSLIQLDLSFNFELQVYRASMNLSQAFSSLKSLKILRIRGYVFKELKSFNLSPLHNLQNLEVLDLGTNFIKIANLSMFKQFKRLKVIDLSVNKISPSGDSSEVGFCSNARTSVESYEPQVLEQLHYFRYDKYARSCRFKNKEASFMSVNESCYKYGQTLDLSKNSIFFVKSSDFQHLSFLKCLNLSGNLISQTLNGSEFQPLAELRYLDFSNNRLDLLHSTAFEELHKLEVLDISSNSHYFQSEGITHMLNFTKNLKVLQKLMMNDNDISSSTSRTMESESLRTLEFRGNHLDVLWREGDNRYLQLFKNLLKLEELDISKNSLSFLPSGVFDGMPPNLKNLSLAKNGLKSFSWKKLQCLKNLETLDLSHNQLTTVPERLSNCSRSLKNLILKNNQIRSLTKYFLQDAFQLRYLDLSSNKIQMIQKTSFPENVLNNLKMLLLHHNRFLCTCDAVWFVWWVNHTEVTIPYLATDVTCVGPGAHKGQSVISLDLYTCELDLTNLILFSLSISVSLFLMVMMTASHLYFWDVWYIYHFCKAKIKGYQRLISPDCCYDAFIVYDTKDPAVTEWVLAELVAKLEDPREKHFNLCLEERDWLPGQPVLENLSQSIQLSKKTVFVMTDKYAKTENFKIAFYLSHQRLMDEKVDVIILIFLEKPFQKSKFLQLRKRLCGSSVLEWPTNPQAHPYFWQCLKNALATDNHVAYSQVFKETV
Summary of the method: as §1

SMILES	IC50 (human TLR8) [nM]	IC50 (human TLR9) [nM]	IC50 (human TLR7) [nM]
Cc1cc(-c2[nH]c3ccc(CCN4CCC(F)CC4)cc3c2C(C)C)cn(C)c1=O [Example 407]	1.4	13600	9
Cc1cc(-c2[nH]c3ccc(C4CCC(C(=O)N5CCOCC5)CC4)cc3c2C(C)C)cn2ncnc12 (stereo not drawn) [Example 161]	59	4800	3
Cc1cc(-c2[nH]c3ccc(C4CCC(N)CC4)cc3c2C(C)C)cn2ncnc12 (single isomer, unassigned) [Example 3]	1	1290	0.15
CNCC(=O)N1CCCC(c2ccc3[nH]c(-c4cn5ncnc5c(C)c4C)c(C(C)C)c3c2)C1 (stereo not drawn) [Example 213]	5	6520	3
Cc1cc(-c2[nH]c3ccc(C4CN(CC(N)=O)CCO4)cc3c2C(C)C)cn2ncnc12 (stereo not drawn) [Example 318]	48	> 50000	6
CCc1c(-c2ccnc(C)c2)[nH]c2ccc(CNC(=O)CCN(C)C)cc12 [Example 395, 3-(dimethylamino)-N-{[3-ethyl-2-(2-methylpyridin-4-yl)-1H-indol-5-yl]methyl}propanamide]	182	823	966
Cc1cc(-c2[nH]c3ccc(C4CN(CC(=O)N(C)C)CCO4)cc3c2C(C)C)cn2ncnc12 (single isomer, unassigned) [Example 308]	18	> 50000	8
Cc1c(-c2[nH]c3ccc(C4CCC(NC(=O)CN(C)C)CC4)cc3c2C(C)C)cn2ncnc2c1C (stereo not drawn) [Example 123]	1	> 50000	0.52
Cc1c(-c2[nH]c3ccc(C4CCC(NC5CC5)CC4)cc3c2C(C)C)cn2ncnc2c1C (stereo not drawn) [Example 17]	0.7	3530	0.73
Cc1cc(-c2[nH]c3ccc(C4CCC(N(C)CC(=O)N(C)C)CC4)cc3c2C(C)C)cn2ncnc12 (single isomer, unassigned) [Example 178, 2-((4-(3-isopropyl-2-(8-methyl-[1,2,4]triazolo[1,5-a]pyridin-6-yl)-1H-indol-5-yl)cyclohexyl)(methyl)amino)-N,N-dimethylacetamide]	2.4	1780	0.23
CNCC(=O)N1CC(c2ccc3[nH]c(-c4cc(C)c5ncnn5c4)c(C(C)C)c3c2)C1 [Example 267, 1-(3-(3-isopropyl-2-(8-methyl-[1,2,4]triazolo[1,5-a]pyridin-6-yl)-1H-indol-5-yl)azetidin-1-yl)-2-(methylamino)ethan-1-one]	5.5	2000	0.96
COc1cc(-c2[nH]c3ccc(C4CCC(N(C)C5CC5)CC4)cc3c2C(C)C)cn2ncnc12 (stereo not drawn) [Example 13]	4.8	2810	1
COc1cc(-c2[nH]c3ccc(C4CCCN(CCS(C)(=O)=O)C4)cc3c2C(C)C)cn2ncnc12 (stereo not drawn) [Example 253]	4.4	6220	5

More lines, now with the values ahead:

IC50 (human TLR8) [nM]	IC50 (human TLR9) [nM]	IC50 (human TLR7) [nM]	SMILES
8.8	22700	61	Cc1c(-c2[nH]c3ccc(C4CN(CCS(C)(=O)=O)C4)cc3c2C(C)C)cn(C)c(=O)c1C [Example 483]
6.4	4090	115	Cc1c(-c2[nH]c3ccc(CC4CN(C5CCOCC5)C4)cc3c2C(C)C)cn(C)c(=O)c1C [Example 416]
238	19500	139	COc1ccc(-c2[nH]c3ccc(C4CCC(O)CC4)cc3c2C(C)C)cc1OC (stereo not drawn) [Example 451]
2.3	649	1	Cc1cc(-c2[nH]c3ccc(C4CCC(N5CCOCC5)CC4)cc3c2C(C)C)cc(C)n1 (stereo not drawn) [Example 497]
8.7	1010	8	Cc1cc(-c2[nH]c3ccc(C4CCN(C(=O)CN(C)C)C4)cc3c2C(C)C)cc(C)n1 (stereo not drawn) [Example 591]
6	4240	22	CCCN1CC(c2ccc3[nH]c(-c4cn(C)c(=O)c(C)c4C)c(C(C)C)c3c2)C1 [Example 488]
0.31	4960	0.93	Cc1c(-c2[nH]c3ccc(C4CC(NCCS(C)(=O)=O)C4)cc3c2C(C)C)cn2ncnc2c1C (stereo not drawn) [Example 572]
15	16200	49	Cc1c(-c2[nH]c3ccc(CC4CCCN4CCS(C)(=O)=O)cc3c2C(C)C)cn2cnnc2c1C (stereo not drawn) [Example 428]
3.2	3350	2	Cc1c(-c2[nH]c3ccc(C4CN(Cc5c[nH]nn5)C4)cc3c2C(C)C)cn2ncnc2c1C [Example 551]
0.9	2750	2	COc1cc(-c2[nH]c3ccc(CCN4CCN(C)CC4)cc3c2C(C)C)cn2ncnc12 [Example 413]
